Results published in patent publication US7041698B2, “Hepatitis C virus inhibitors” (Bristol-Myers Squibb Company, priority 2002, dated 2006).

Columns and labels:
NS3/4A H77C strain = target: T1, NS3/4A H77C strain (Hepatitis C virus genotype 1a, UniProt P27958, C1454S); experiment: Recombinant HCV NS3/4A protease complex FRET peptide assay, H77C strain; assay type: biochemical, HCV genotype 1a
T1 construct: DNA encoding the recombinant HCV NS3/4A protease complex (amino acids 1027 to 1711) for these strains; His tag (inferred from pET21b vector and Ni-NTA purification); made in house; host or cells: Escherichia coli BL21 (DE3)
T1 sequence (P27958 1027-1657 C1454S): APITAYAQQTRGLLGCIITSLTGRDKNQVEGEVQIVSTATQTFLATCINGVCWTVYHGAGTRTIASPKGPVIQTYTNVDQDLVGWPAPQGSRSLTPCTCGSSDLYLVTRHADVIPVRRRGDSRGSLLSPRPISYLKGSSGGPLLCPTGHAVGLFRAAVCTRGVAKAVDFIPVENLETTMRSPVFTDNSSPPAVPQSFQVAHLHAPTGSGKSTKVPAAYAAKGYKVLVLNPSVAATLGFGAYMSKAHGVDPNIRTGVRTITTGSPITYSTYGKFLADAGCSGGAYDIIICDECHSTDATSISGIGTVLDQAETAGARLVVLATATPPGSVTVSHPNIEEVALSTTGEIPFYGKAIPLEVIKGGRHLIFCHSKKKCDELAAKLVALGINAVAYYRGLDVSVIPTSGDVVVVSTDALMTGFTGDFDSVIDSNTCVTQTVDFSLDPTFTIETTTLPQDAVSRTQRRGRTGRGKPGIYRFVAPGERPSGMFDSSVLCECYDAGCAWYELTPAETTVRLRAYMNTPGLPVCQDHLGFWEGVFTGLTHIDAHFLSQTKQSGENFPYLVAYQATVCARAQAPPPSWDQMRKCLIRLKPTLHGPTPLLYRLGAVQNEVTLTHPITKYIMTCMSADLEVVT
T1 sequence (P27958 1658-1714 partner, looked up, stated change not applied): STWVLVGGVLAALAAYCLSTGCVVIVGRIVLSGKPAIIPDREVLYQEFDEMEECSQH
From the text: Recombinant HCV NS3/4A Protease Complex FRET Peptide Assay
The purpose of this in vitro assay was to measure the inhibition of HCV NS3 protease complexes, derived from the BMS, H77C or J416S strains, as described below, by compounds of the present invention. This assay provides an indication of how effective compounds of the present invention would be in inhibiting HCV proteolytic activity.
Serum from an HCV-infected patient was obtained from Dr. T. Wright, San Francisco Hospital. An engineered full-length cDNA (compliment deoxyribonucleic acid) template of the HCV genome (BMS strain) was constructed from DNA fragments obtained by reverse transcription-PCR (RT-PCR) of serum RNA (ribonucleic acid) and using primers selected on the basis of homology between other genotype 1a strains. From the determination of the entire genome sequence, a genotype 1a was assigned to the HCV isolate according to the classification of Simmonds et al. (See P Simmonds, K A Rose, S Graham, S W Chan, F McOmish, B C Dow, E A Follett, P L Yap and H Marsden, J. Clin. Microbiol., 31(6), 1493–1503 (1993)). […]

[1] = target: T2, human sputum elastase (HS) (Homo sapiens, UniProt P08246); experiment: Specificity assay, human sputum elastase; assay type: biochemical; conditions: 2 hr pre-incubation at RT
T2 construct: purchased Sigma
T2 sequence (P08246 30-267): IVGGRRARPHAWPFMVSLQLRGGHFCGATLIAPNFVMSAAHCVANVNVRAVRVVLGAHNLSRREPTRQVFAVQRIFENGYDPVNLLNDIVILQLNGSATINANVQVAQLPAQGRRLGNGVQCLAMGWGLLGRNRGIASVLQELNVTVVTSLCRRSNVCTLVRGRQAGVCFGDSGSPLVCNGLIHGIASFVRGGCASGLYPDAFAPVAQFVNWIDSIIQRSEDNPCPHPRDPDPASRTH
Method: The specificities of compounds of the present invention were determined against a variety of serine proteases: human sputum elastase (HS), porcine pancreatic elastase (PPE) and human pancreatic chymotrypsin and one cysteine protease: human liver cathepsin B. In all cases a 96-well plate format protocol using calorimetric p-nitroaniline (pNA) substrate specific for each enzyme was used as described previously (Patent WO 00/09543) with some modifications to the serine protease assays. All enzymes were purchased from Sigma while the substrates were from Bachem.
Each assay included a 2 hr enzyme-inhibitor pre-incubation at RT followed by addition of substrate and hydrolysis to ˜30% conversion as measured on a Spectramax Pro microplate reader. Compound concentrations varied from 100 to 0.4 μM depending on their potency. […]
The percentage of inhibition was calculated using the formula: [1-((UVinh−UVblank)/(UVctl−UVblank))]×100 […]

In the case of `C=CC1C[C@]1(NC(=O)[C@@H]1C[C@@H](OC(=O)Nc2ccccc2-c2ccccc2)CN1C(=O)[C@@H](NC(=O)OC(C)(C)C)C(C)(C)C)C(=O)NS(=O)(=O)C1CC1` (stereo partly drawn) [Compound 8, BocNH-P3(t-BuGly)-P2(Hyp(O—CO(NH-biphen-2-yl)))-P1(1R,2S VinylAcca)—CONHSO2Cyclopropane], the IC50 (NS3/4A H77C strain) is reported as 11 nM and the IC50 [1] is reported as > 100000 nM.
